Reference: patent US20090111854A1, “1,2,4-TRIAZOLE ARYL N-OXIDES DERIVATIVES AS MODULATORS OF MGLUR5” (AstraZeneca AB, priority 2007, published 2009)

Assays:
[1] = Determination of brain to plasma ratio in rat; format: in vivo, female Sprague Dawley rats; conditions: female, Sprague Dawley, brain and plasma, read-out: Brain/Plasma Ratio of compound in Rat
Procedure: Brain to plasma ratios are estimated in female Sprague Dawley rats. The compound is dissolved in water or another appropriate vehicle. For determination of brain to plasma ratio the compound is administrated as a subcutaneous, or an intravenous bolus injection, or an intravenous infusion, or an oral administration. At a predetermined time point after the administration a blood sample is taken with cardiac puncture. The rat is terminated by cutting the heart open, and the brain is immediately retained. The blood samples are collected in heparinized tubes and centrifuged within 30 minutes, in order to separate the plasma from the blood cells. The plasma is transferred to 96-well plates and stored at −20° C. until analysis. The brains are divided in half, and each half is placed in a pre-tarred tube and stored at −20° C. until analysis. Prior to the analysis, the brain samples are thawed and 3 mL/g brain tissue of distilled water is added to the tubes. The brain samples are sonicated in an ice bath until the samples are homogenized. Both brain and plasma samples are precipitated with acetonitrile. After centrifugation, the supernatant is diluted with 0.2% formic acid. Analysis is performed on a short reversed-phase HPLC column with rapid gradient elution and MSMS detection using a triple quadrupole instrument with electrospray ionisation and Selected Reaction Monitoring (SRM) acquisition. Liquid-liquid extraction may be used as an alternative sample clean-up. The samples are extracted, by shaking, to an organic solvent after addition of a suitable buffer. An aliquot of the organic layer is transferred to a new vial and evaporated to dryness under a stream of nitrogen. After reconstitution of the residuals the samples are ready for injection onto the HPLC column.

human mGluR5d = target: T1, human mGluR5d (Homo sapiens, UniProt P41594); assay: FLIPR assay, functional assessment of mGluR5 antagonism (intracellular calcium mobilization); format: cell-based; conditions: cells expressing human mGluR5d; read-out: FLIPR hmGluR5d
T1 construct: expressed in transfected cells; The culture medium contains hygromycin B and Zeocin as selection agents; The separate IP3 assay names 'GHEK stably expressing the human mGluR5d'
T1 sequence (P41594 21-942 isoform P41594-3 limits assumed): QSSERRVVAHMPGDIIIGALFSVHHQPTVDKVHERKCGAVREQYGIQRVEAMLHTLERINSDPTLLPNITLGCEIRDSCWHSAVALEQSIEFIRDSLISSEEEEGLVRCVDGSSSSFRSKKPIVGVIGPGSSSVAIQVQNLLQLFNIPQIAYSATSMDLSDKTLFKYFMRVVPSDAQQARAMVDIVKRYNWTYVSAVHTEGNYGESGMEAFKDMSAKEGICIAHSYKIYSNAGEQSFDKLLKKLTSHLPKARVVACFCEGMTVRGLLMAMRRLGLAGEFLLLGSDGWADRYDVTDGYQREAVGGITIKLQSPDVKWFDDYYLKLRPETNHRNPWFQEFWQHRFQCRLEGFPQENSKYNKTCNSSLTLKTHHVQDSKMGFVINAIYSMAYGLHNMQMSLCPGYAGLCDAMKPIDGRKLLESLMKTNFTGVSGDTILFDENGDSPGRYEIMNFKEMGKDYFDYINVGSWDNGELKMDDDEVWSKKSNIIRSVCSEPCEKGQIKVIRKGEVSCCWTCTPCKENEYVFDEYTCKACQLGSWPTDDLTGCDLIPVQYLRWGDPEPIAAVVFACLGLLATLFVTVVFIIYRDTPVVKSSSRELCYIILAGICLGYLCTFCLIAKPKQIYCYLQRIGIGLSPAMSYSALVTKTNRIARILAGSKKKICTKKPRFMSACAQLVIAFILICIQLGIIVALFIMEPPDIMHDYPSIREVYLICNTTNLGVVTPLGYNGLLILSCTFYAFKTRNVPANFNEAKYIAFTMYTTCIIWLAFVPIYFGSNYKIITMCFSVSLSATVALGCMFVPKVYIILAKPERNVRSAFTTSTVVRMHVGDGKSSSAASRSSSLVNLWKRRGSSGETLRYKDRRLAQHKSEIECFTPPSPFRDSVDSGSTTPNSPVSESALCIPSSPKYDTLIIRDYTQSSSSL
Description: Functional Assessment of mGluR5 Antagonism it Cell Lines Expressing mGluR5D
The properties of the compounds of the invention can be analyzed using standard assays for pharmacological activity. Examples of glutamate receptor assays are well known in the art as described in for example Aramori et al., Neuron 8:757 (1992), Tanabe et al., Neuron 8:169 (1992), Miller et al., J. Neuroscience 15: 6103 (1995), Balazs, et al., J. Neurochemistry 69:151 (1997). The methodology described in these publications is to incorporated herein by reference. Conveniently, the compounds of the invention can be studied by means of an assay (FLIPR) that measures the mobilization of intracellular calcium, [Ca^2+]i in cells expressing mGluR5 or another assay (IP3) that measures inositol phosphate turnover.
Cells expressing human mGluR5d as described in WO97/05252 cultured in a mixture of high glucose DMEM with Glutamax (31966-021) (500 mL), 10% dialyzed fetal bovine serum (Hyclone #SH30079.03)(56 mL), 200 μg/mL Hygromycin B (Invitrogen 45-0430, 50 mg/mL) (2.2 mL), 200 μg/mL Zeocin (Invitrogen #R250-01; 100 mg/mL)(1.1 mL) are seeded at a density of 100,000 cells per well on collagen coated clear bottom 96-well plates with black sides and cells were allowed to adhere over night before experiments. All assays are done in a buffer containing 146 mM NaCl, 5 mM KCl, 1 mM MgCl2, 1 mM CaCl2, 20 mM HEPES, 1 mg/mL glucose and 1 mg/mL BSA Fraction IV (pH 7.4). Cell cultures in the 96-well plates are loaded for 60 minutes in the above mentioned buffer containing 6 μM of the acetoxymethyl ester form of the fluorescent calcium indicator fluo-3 (Molecular Probes, Eugene, Oreg.) in 0.025% pluronic acid (a proprietary, non-ionic surfactant polyol—CAS Number 9003-11-6). […] The fluorescence signal is sampled 50 times at 1-second intervals followed by 3 samples at 5-second intervals immediately after each of the two additions. Responses are measured as the difference between the peak heights of the response to agonist, less the background fluorescence within the sample period. […]

Row | Kp [1] | IC50 (human mGluR5d) [nM] | SMILES
1 | 0.01 | 81 | C[C@@H](c1noc(-c2cccc(Cl)c2)n1)N(C)c1nnc(-c2cc[n+]([O-])cc2)n1C [Example 4, N-{(1S)-1-[5-(3-chlorophenyl)-1,2,4-oxadiazol-3-yl]ethyl}-N,4-dimethyl-5-(1-oxidopyridin-4-yl)-4H-1,2,4-triazol-3-amine]
2 | < 0.015 | 49 | Cn1c(-c2ccc[n+]([O-])c2)nnc1N1CCCC[C@@H]1c1nnn(-c2cccc(Cl)c2)n1 [Example 5, 3-(5-{(2R)-2-[2-(3-chlorophenyl)-2H-tetrazol-5-yl]piperidin-1-yl}-4-methyl-4H-1,2,4-triazol-3-yl)pyridine 1-oxide]
3 | < 0.01 | 108 | Cn1c(-c2ccc[n+]([O-])c2)nnc1N1CCC[C@@H]1c1nnn(-c2cccc(Cl)c2)n1 [Example 6, 3-(5-{(2R)-2-[2-(3-chlorophenyl)-2H-tetrazol-5-yl]pyrrolidin-1-yl}-4-methyl-4H-1,2,4-triazol-3-yl)pyridine 1-oxide]
